Measured values taken from patent US8921368B2, “Pyrrolopyridazine JAK3 inhibitors and their use for the treatment of inflammatory and autoimmune diseases” (Bristol-Myers Squibb Company, priority 2011, dated 2014).

Assays:
[1] = biological target: JAK3 (Homo sapiens (Human), UniProt P52333); assay: JAK3 Kinase Assay (Caliper / Filter protocols); format: biochemical; conditions: JAK3 kinase inhibition; ATP 8 μM; read-out: LLE_JAK3_FB (IC50)
Protocol: JAK3 Kinase Assay Protocol (Caliper)
The assay reactions were performed in U-bottom 384-well plates. […] The reaction was initiated by the combination of GST-JAK3 enzyme with substrates and test compounds. The reactions were incubated at room temperature for 3 hours and terminated by adding 60 μl of 35 mM EDTA to each sample. […] Compounds were dissolved at 10 mM in dimethylsulfoxide (DMSO) and evaluated at eleven concentrations. IC50 values were derived by non-linear regression analysis.
JAK3 Kinase Assay Protocol (Filter)
Kinase reactions consisted of 5 ng of JAK3 enzyme, 30 uM CSKtide substrate, 0.2 μCi ^33P γ-ATP, 8 μM ATP in 30 μl kinase buffer (50 mM Hepes, pH 8.0, 10 mM MgCl2, 1 mM EGTA, 2 mM DTT). Reactions were incubated for 30 minutes at room temperature and stopped by the addition of cold trichloroacetic acid (TCA) to a final concentration of 15%. TCA precipitates were collected onto 384 well phosphocellulose filters (Millipore) using a Platemate to transfer the reaction mixture, washed on an EMBLA plate washer and the filters were quantitated using a TopCount 384-well liquid scintillation counter. […] Compounds were dissolved at 10 mM in dimethylsulfoxide (DMSO) and evaluated at six concentrations, each in triplicate. The final concentration of DMSO in the assay equaled 2%. IC50 values were derived by non-linear regression analysis.

[2] = biological target: JAK1 (Homo sapiens (Human), UniProt P23458); assay: JAK1 Kinase Assay Protocol; format: biochemical; conditions: GST-JAK1; ATP 100 μM; Caliper LabChip; read-out: LLE_JAK1 (IC50)
Protocol: JAK1 Kinase Assay Protocol
The assay reactions were performed in U-bottom 384-well plates. The final assay volume was 30 μl prepared from 15 μl additions of enzyme and substrates (fluoresceinated peptide and ATP) and test compounds in assay buffer (20 mM HEPES pH 7.4, 10 mM MgCl2, 25 mM beta-glycerol phosphate, 0.015% Brij35 and 4 mM DTT). The reaction was initiated by the combination of GST-JAK1 enzyme with substrates and test compounds. The reactions were incubated at room temperature for 3 hours and terminated by adding 60 μl of 35 mM EDTA to each sample. […] The final concentration of reagents in the assays was: ATP, 100 μM; fluoresceinated peptide, 1.5 μM; GST-JAK1, 12.5 nM; and DMSO, 1.6%. […] Compounds were dissolved at 10 mM in dimethylsulfoxide (DMSO) and evaluated at eleven concentrations. IC50 values were derived by non-linear regression analysis.

JAK1, sequence (P23458 whole entry): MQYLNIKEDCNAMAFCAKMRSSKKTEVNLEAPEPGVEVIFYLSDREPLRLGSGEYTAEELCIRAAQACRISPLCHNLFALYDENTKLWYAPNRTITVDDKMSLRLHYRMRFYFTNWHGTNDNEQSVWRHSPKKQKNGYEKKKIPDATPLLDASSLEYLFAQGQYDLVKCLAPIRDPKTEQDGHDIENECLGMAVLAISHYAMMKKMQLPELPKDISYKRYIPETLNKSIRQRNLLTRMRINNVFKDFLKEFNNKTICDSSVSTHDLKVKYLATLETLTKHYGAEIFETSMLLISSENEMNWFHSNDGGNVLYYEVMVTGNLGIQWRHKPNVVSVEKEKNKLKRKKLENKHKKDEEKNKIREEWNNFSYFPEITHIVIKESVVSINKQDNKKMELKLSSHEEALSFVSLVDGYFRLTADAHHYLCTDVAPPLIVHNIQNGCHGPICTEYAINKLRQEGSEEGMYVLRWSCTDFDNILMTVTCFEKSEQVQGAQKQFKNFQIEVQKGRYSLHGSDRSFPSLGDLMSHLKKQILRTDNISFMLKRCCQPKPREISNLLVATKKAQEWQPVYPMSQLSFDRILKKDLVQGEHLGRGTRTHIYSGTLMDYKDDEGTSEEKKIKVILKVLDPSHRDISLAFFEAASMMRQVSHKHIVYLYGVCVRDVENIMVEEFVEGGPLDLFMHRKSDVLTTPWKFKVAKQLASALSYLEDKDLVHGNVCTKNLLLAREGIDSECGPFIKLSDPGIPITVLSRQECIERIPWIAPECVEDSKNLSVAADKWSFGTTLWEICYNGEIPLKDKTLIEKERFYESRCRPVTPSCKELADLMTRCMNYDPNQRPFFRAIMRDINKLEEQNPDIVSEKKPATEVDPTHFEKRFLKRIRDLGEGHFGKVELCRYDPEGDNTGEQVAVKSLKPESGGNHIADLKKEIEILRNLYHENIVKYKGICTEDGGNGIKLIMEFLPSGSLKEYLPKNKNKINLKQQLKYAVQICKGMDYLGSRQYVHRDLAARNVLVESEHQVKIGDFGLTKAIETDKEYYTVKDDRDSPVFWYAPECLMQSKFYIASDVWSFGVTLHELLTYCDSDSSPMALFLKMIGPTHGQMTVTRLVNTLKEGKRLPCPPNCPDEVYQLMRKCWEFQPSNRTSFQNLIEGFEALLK
JAK3, sequence (P52333 whole entry): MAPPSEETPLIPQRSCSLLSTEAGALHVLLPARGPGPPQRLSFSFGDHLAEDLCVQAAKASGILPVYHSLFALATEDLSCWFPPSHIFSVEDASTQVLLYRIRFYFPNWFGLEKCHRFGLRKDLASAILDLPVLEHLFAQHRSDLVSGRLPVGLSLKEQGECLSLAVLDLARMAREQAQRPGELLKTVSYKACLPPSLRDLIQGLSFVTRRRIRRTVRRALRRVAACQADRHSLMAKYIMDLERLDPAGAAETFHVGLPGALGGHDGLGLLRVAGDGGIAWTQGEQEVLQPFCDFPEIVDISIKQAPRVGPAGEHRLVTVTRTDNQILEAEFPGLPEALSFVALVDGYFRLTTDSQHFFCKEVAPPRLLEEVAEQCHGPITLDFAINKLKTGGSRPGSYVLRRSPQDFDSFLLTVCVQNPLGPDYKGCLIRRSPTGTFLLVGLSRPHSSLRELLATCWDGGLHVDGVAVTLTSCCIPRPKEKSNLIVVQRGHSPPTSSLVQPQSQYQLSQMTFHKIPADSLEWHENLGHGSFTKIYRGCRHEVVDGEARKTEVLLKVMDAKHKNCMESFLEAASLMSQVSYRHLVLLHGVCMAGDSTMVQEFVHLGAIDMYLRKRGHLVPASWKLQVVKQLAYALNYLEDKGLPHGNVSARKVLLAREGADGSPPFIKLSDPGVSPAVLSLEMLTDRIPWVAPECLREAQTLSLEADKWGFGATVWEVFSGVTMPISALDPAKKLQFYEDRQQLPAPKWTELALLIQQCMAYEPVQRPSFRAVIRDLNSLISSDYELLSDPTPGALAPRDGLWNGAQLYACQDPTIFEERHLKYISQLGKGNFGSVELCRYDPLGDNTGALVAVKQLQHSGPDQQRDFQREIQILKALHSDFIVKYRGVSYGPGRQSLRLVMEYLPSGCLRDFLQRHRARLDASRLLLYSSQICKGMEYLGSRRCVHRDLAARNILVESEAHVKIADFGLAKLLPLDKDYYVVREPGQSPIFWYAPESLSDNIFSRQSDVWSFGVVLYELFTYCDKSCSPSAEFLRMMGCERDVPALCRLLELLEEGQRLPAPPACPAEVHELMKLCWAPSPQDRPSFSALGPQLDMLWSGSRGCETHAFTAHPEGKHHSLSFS

| IC50 [1] [nM] | IC50 [2] [nM] | SMILES |
| --- | --- | --- |
| 136 | 253 | CC(C)c1ccccc1-c1cc2c(N[C@@H]3CCC[C@]3(C)F)c(C(N)=O)cnn2c1 (racemic) [Example 60] |
| 5.5 | 4.1 | COc1cncc(-c2cc3c(N[C@@H]4CC[C@](C)(N)C4(C)C)c(C(N)=O)cnn3c2)c1 [Example 286, 4-(((1R,3S)-3-amino-2,2,3-trimethylcyclopentyl)amino)-6-(5-methoxy-3-pyridinyl)pyrrolo[1,2-b]pyridazine-3-carboxamide] |
| 6 | 2.7 | CC1(C)[C@H](Nc2c(C(N)=O)cnn3cc(-c4ccccc4C(N)=O)cc23)CC[C@]1(C)N [Example 255, 4-(((1R,3S)-3-amino-2,2,3-trimethylcyclopentyl)amino)-6-(2-carbamoylphenyl)pyrrolo [1,2-b]pyridazine-3-carboxamide] |
| 6.1 | 1.3 | Cc1ccncc1-c1cc2c(N[C@@H]3CC[C@](C)(N)C3(C)C)c(C(N)=O)cnn2c1 [Example 195, 4-(((1R,3S)-3-amino-2,2,3-trimethylcyclopentyl)amino)-6-(4-methyl-3-pyridinyl)pyrrolo[1,2-b] pyridazine-3-carboxamide] |
| 36.9 | 30 | CC(=O)Nc1ccccc1-c1cc2c(N[C@@H]3CC[C@](C)(N)C3(C)C)c(C(N)=O)cnn2c1 [Example 257, 6-(2-acetamidophenyl)-4-(((1R,3S)-3-amino-2,2,3-trimethylcyclopentyl)amino)pyrrolo[1,2-b]pyridazine-3-carboxamide] |
| 0.4 | 1.4 | CC1(C)[C@H](Nc2c(C(N)=O)cnn3cc(-c4ccccc4)cc23)CC[C@]1(C)C(N)=O [Example 337, 4-((1R,3S)-3-carbamoyl-2,2,3-trimethylcyclopentylamino)-6-phenylpyrrolo[1,2-b]pyridazine-3-carboxamide] |
| 1.6 | 0.7 | CC1(C)[C@H](Nc2c(C(N)=O)cnn3cc(-c4ccc(C(=O)NC5CC5)cc4)cc23)CC[C@]1(C)N [Example 221, 4-(((1R,3S)-3-amino-2,2,3-trimethylcyclopentyl)amino)-6-(4-(cyclopropylcarbamoyl)phenyl)pyrrolo[1,2-b] pyridazine-3-carboxamide] |
| 13.8 | 5.4 | CC1(C)[C@H](Nc2c(C(N)=O)cnn3cc(-c4cccc5ncccc45)cc23)CC[C@]1(C)N [Example 272, 4-(((1R,3S)-3-amino-2,2,3-trimethylcyclopentyl)amino)-6-(5-quinolinyl)pyrrolo[1,2-b]pyridazine-3-carboxamide] |
| 0.5 | 0.7 | CC1(C)[C@H](Nc2c(C(N)=O)cnn3cc(-c4cccnc4)cc23)CC[C@]1(C)N [Example 192, 4-(((1R,3S)-3-amino-2,2,3-trimethylcyclopentyl)amino)-6-(3-pyridinyl) pyrrolo[1,2-b]pyridazine-3-carboxamide] |
| 1 | 2.6 | CC1(C)[C@H](Nc2c(C(N)=O)cnn3cc(-c4ccccc4)cc23)CC[C@]1(C)NS(C)(=O)=O [Example 129] |

Further lines, the compound ahead of its results:

| SMILES | IC50 [1] [nM] | IC50 [2] [nM] |
| --- | --- | --- |
| CC1(C)[C@H](Nc2c(C(N)=O)cnn3cc(-c4ccc(N5CCCC5)nc4)cc23)CC[C@]1(C)N [Example 213, 4-(((1R,3S)-3-amino-2,2,3-trimethylcyclopentyl)amino)-6-(6-(1-pyrrolidinyl)-3-pyridinyl)pyrrolo[1,2-b]pyridazine-3-carboxamide] | 9.5 | 17.3 |
| C[C@]1(F)CCC[C@H]1Nc1c(C(N)=O)cnn2cc(N3CCOC3=O)cc12 [Example 317] | 6.8 | 13.6 |
| C[C@]1(F)CCC[C@H]1Nc1c(C(N)=O)cnn2cc(-c3cccc(C(N)=O)c3)cc12 (racemic) [Example 94] | 0.5 | 1.4 |
| Cc1cccc(C)c1-c1cc2c(NC3C4CC5CC3CC(O)(C5)C4)c(C(N)=O)cnn2c1 (stereo not drawn) [Example 177, 6-(2,6-dimethylphenyl)-4-((5-hydroxyadamantan-2-yl)amino)pyrrolo [1,2-b]pyridazine-3-carboxamide] | 524 |  |
| C[C@]1(F)CCC[C@H]1Nc1c(C(N)=O)cnn2cc(-c3cncc4ccccc34)cc12 (racemic) [Example 68] | 46.4 |  |
| CC1(C)[C@H](Nc2c(C(N)=O)cnn3cc(NS(=O)(=O)c4ccc(Cl)cc4)cc23)CC[C@@]1(C)O (racemic) [Example 23] | 23.4 | 258 |
| NC(=O)c1cnn2cc(-c3ccc(F)cc3)cc2c1NC12CC3CC(O)(CC(O)(C3)C1)C2 [Example 298, 4-((3,5-dihydroxyadamantan-1-yl)amino)-6-(4-fluorophenyl)pyrrolo [1,2-b]pyridazine-3-carboxamide] | 4.7 | 2.1 |
| C[C@]1(O)CC[C@@H](Nc2c(C(N)=O)cnn3cc(-c4ccc(C#N)cc4)cc23)CC1 [Example 167, 6-(4-cyanophenyl)-4-((cis-4-hydroxy-4-methylcyclohexyl)amino)pyrrolo[1,2-b]pyridazine-3-carboxamide] | 1.6 | 6.1 |
| Cc1cccc(-c2cc3c(N[C@@H]4CCC[C@]4(C)F)c(C(N)=O)cnn3c2)c1 (racemic) [Example 72] | 0.3 | 1.3 |
| C[C@]1(F)CCC[C@H]1Nc1c(C(N)=O)cnn2cc(N3CCCC3=O)cc12 (racemic) [Example 159] | 0.5 | 3.8 |
| C[C@]1(O)CC[C@@H](Nc2c(C(N)=O)cnn3cc(-c4cncnc4)cc23)CC1 [Example 168, 4-((cis-4-hydroxy-4-methylcyclohexyl)amino)-6-(5-pyrimidinyl)pyrrolo [1,2-b]pyridazine-3-carboxamide] | 17.1 | 105 |
| NC(=O)c1cnn2cc(-c3ccc4scnc4c3)cc2c1NC12CC3CC(O)(CC(O)(C3)C1)C2 [Example 299, 6-(1,3-benzothiazol-5-yl)-4-((3,5-dihydroxyadamantan-1-yl)amino)pyrrolo [1,2-b]pyridazine-3-carboxamide] | 7.3 | 4.3 |
| C[C@]1(O)CC[C@@H](Nc2c(C(N)=O)cnn3cc(-c4ccccc4C(N)=O)cc23)CC1 [Example 166, 6-(2-carbamoylphenyl)-4-((cis-4-hydroxy-4-methylcyclohexyl)amino)pyrrolo[1,2-b]pyridazine-3-carboxamide] | 33.6 | 72.4 |
| CC1(C)[C@H](Nc2c(C(N)=O)cnn3cc(N4CCOCC4=O)cc23)CC[C@]1(C)N [Example 312, 4-(((1R,3S)-3-amino-2,2,3-trimethylcyclopentyl)amino)-6-(3-oxo-4-morpholinyl)pyrrolo[1,2-b]pyridazine-3-carboxamide] | 44.2 | 69.4 |
| COc1ccccc1-c1cc2c(NC3C4CC5CC3CC(O)(C5)C4)c(C(N)=O)cnn2c1 (stereo not drawn) [Example 178, 4-((5-hydroxyadamantan-2-yl)amino)-6-(2-methoxyphenyl)pyrrolo [1,2-b]pyridazine-3-carboxamide] | 1 |  |
| C[C@]1(O)CCCC[C@@H]1Nc1c(C(N)=O)cnn2cc(-c3ccccc3)cc12 (racemic) [Example 314, (+/−)-4-(((1S,2S)-2-hydroxy-2-methylcyclohexyl)amino)-6-phenylpyrrolo[1,2-b]-pyridazine-3-carboxamide] | 5.1 | 17.4 |
| Cc1ccc(-c2cc3c(NC4C5CC6CC4CC(O)(C6)C5)c(C(N)=O)cnn3c2)cc1 (stereo not drawn) [Example 187, 4-((5-hydroxyadamantan-2-yl)amino)-6-(4-methylphenyl)pyrrolo [1,2-b]pyridazine-3-carboxamide] |  | 63.4 |
| Cn1nccc1-c1cc2c(NC3C4CC5CC3CC(O)(C5)C4)c(C(N)=O)cnn2c1 (stereo not drawn) [Example 185, 4-((5-hydroxyadamantan-2-yl)amino)-6-(1-methyl-1H-pyrazol-5-yl) pyrrolo[1,2-b] pyridazine-3-carboxamide] | 6.2 |  |
| Cn1nccc1-c1cc2c(N[C@H]3CC[C@@](C)(O)CC3)c(C(N)=O)cnn2c1 [Example 162, 4-((4-hydroxy-4-methylcyclohexyl)amino)-6-(1-methyl-1H-pyrazol-5-yl)pyrrolo[1,2-b]pyridazine-3-carboxamide] | 62.7 |  |
| COc1cccc(-c2cc3c(NC4C5CC6CC4CC(O)(C6)C5)c(C(N)=O)cnn3c2)c1 (stereo not drawn) [Example 176, 4-((5-hydroxyadamantan-2-yl)amino)-6-(3-methoxyphenyl)pyrrolo [1,2-b]pyridazine-3-carboxamide] | 8.9 |  |
| COc1ccc(S(=O)(=O)Nc2cc3c(N[C@@H]4CC[C@@](C)(O)C4(C)C)c(C(N)=O)cnn3c2)cc1 (racemic) [Example 24] | 34.2 |  |
